This note sets out measurements from ChEMBL document CHEMBL1201862, “PubChem BioAssay data set” (2004).

Active and inactive are the calls of the source.

For test [1], the target named is Mothers against decapentaplegic homolog 3 (Homo sapiens, UniProt P84022). Briefly: SMAD3 transcription factor inhibitors, dose response (AID 715). It is filed as functional.
Test [2] addresses Intestinal-type alkaline phosphatase (Homo sapiens, UniProt P09923). The experiment in a line: Dose Response confirmation of uHTS hits from a small molecule inhibitors of human intestinal alkaline phosphatase via a luminescent assay. [Related pubchem assays (depositor defined):AID2544, AID2574]. It is filed as functional.
Test [3] deals with T1, Sentrin-specific protease 8 (Homo sapiens, UniProt Q96LD8).
T1 sequence (Q96LD8 whole entry): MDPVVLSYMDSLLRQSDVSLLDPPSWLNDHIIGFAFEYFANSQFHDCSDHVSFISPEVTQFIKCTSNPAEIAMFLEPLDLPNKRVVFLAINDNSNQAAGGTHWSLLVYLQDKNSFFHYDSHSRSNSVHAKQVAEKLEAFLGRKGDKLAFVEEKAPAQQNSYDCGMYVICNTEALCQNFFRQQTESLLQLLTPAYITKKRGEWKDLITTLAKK
It is filed as functional.

Test [4] addresses T2, Histone-lysine N-methyltransferase NSD2 (Homo sapiens, UniProt O96028).
T2 sequence (O96028 whole entry): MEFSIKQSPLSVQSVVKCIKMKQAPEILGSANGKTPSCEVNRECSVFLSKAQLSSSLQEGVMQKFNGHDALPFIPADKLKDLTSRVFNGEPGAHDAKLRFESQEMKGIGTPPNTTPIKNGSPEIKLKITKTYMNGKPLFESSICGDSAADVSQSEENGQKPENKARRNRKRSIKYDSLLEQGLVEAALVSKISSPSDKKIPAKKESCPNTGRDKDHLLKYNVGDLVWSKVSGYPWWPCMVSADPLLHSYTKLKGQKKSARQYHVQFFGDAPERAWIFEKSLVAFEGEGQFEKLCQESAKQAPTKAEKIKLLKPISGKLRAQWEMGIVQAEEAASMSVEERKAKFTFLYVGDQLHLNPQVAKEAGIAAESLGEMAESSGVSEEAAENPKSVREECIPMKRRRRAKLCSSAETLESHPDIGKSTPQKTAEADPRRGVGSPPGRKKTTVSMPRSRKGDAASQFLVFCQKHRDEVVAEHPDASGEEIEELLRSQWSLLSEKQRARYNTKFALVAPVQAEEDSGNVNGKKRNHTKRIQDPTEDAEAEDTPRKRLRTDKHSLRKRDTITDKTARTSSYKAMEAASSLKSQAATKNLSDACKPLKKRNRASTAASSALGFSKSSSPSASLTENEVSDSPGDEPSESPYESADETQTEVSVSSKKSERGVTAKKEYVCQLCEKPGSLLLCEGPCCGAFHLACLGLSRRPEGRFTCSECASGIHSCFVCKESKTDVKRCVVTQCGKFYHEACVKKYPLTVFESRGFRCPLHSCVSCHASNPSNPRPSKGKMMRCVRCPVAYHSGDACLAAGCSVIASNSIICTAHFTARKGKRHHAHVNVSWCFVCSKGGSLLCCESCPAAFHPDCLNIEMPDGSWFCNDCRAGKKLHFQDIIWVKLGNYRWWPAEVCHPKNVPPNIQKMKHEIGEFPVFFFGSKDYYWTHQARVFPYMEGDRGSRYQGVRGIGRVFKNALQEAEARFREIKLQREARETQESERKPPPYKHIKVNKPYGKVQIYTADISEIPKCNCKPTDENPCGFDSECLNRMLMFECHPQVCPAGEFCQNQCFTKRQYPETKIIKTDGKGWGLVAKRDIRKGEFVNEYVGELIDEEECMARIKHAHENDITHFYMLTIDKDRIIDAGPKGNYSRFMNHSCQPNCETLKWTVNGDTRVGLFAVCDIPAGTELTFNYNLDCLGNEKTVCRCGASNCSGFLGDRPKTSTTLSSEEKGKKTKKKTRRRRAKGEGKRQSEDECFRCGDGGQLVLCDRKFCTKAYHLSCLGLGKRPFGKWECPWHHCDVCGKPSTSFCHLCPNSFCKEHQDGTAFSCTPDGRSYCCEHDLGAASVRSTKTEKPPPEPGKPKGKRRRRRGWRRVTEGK
It is filed as biochemical.

Test [5] has as its target T1, Sentrin-specific protease 8. It is filed as functional. This is another data set of the same source.
For the next test, the target named is T3, Caspase-3 (Homo sapiens, UniProt P42574).
T3 sequence (P42574 whole entry): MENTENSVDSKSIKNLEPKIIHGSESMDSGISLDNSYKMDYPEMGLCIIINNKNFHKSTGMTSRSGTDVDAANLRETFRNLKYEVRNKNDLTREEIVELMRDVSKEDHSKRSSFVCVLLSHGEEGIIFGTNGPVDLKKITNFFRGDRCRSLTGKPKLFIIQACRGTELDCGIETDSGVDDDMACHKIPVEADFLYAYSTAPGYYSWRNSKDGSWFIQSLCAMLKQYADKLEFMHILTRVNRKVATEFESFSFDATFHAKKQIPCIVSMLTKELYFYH
Briefly: Dose-response confirmation of uHTS inhibitor hits of Sentrin-Specific Protease 8 in a Caspase-3 Fluorescence assay. It is filed as functional.

The nature of test [6]: THP-1 cell cytotoxicity, dose response, cytotoxicity control for Vif-APOBEC3G degradation inhibitor project, THP-1 cells (AID 1117359). It is filed as functional. The settings on record: Human immunodeficiency virus 1, THP-1.

Sequence of Mothers against decapentaplegic homolog 3 (P84022 whole entry): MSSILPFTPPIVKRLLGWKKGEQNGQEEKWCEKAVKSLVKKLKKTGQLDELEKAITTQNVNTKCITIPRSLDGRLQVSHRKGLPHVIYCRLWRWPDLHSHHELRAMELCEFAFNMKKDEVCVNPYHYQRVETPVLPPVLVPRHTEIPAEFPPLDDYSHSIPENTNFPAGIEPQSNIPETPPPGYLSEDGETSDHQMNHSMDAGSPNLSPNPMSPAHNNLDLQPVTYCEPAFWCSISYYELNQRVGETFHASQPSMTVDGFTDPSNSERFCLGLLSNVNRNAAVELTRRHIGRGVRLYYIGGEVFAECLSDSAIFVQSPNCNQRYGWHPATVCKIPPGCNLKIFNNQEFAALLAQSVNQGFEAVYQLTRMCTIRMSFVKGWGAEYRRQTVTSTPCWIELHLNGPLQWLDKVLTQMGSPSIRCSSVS
Sequence of Intestinal-type alkaline phosphatase (P09923 whole entry): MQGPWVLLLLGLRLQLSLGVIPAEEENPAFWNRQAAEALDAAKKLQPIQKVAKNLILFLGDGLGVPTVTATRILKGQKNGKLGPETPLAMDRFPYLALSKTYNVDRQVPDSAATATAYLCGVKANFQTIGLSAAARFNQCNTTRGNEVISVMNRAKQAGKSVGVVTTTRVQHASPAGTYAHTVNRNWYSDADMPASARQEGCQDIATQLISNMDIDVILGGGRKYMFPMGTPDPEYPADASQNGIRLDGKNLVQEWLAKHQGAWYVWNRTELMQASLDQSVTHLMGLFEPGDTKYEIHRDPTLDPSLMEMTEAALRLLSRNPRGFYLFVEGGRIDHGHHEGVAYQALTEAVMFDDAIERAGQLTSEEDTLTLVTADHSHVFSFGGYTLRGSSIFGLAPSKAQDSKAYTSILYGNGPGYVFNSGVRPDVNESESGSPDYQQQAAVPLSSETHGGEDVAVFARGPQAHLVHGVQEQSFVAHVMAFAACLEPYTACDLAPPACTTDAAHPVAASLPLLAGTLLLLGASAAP

In general, IC50 refers to the point on the concentration scale where inhibition reaches its midpoint. Regarding `Nc1c(N2CCCC2)cc(Cl)c2nonc12`, the IC50 in test [1] is 18.3 µM (active); in test [2] it was > 100 µM (inactive).
In general, AC50 refers to the midpoint of the concentration-response curve, whichever way the signal moves. As for `O=C(NNc1cc(N2CCOCC2)nc(N2CCOCC2)n1)c1ccc([N+](=O)[O-])cc1`, the IC50 in test [3] is 2.86 µM (active); in test [5] it was 3.2 µM (active); on Caspase-3 it was 20.9 µM (active). Further, in test [4], the AC50 is 2.56 µM (active).
The term CC50 denotes the concentration giving 50% cytotoxicity. For `Oc1ccc(/N=C/c2ccc(OCc3ccccc3)cc2)cc1`, the CC50 in test [6] was > 40 µM (active).
